Source: PMC10644391, “Targeted Reversible Covalent Modification of a Noncatalytic Lysine of the Krev Interaction Trapped 1 Protein Enables Site-Directed Screening for Protein–Protein Interaction Inhibitors” (ACS Pharmacology & Translational Science, 2023)
Several values for one entry are separate records, joined by “and”; a condition that tells them apart may be missing. Equal values may be shown once.

What was measured:
[1] = HEK293 cytotoxicity, resazurin cell viability assay; assay type: cell-based; conditions: human, HEK293 cells, means ± SD, n = 3
Method: Maintenance of HEK293 Cells. HEK293 cell lines (American Type Culture Collection (ATCC)) were cultured in Dulbecco's Modified Eagle Medium (DMEM, Invitrogen) supplemented with 10% heat-inactivated fetal bovine serum (FBS, Gibco) and penicillin-streptomycin (1%). Cells were kept at 37 °C and 5% CO2, and were passaged every 72 hours.
Resazurin Cell Viability Assay. The cytotoxicity in HEK293 cells were determined using a resazurin cell viability assay. Test compounds in DMSO were diluted to 100x desired final assay concentration (maximum concentration of 100 µM) in eight-point dose response. 1 µL of test compounds were plated in a 96-well clear bottom tissue culture microplate. 49 µL of cell culture media was added to each well. Cells were diluted to 4 x 10^5 cells/mL, and 50 µL of this cell suspension was seeded to each well for a total of 2 x 10^4 cells/well. The assay plate was kept at 37 °C and 5% CO 2 for either 4 or 48 hours. At the end of the incubation time, 20 µL of 0.5 mM resazurin sodium salt (Alfa Aesar) solution in PBS was added to each well. The assay plates were incubated further at 37 °C for 2 hours. Fluorescence was measured at 531 nm and 595 nm excitation and emission wavelengths, respectively, using a 2104 EnVision® multilabel plate reader. CC50 values were obtained using sigmoidal curved generated with Prism GraphPad (San Diego, CA). SD values are reported as the standard deviation of the CC50 values of 3 biological replicates. All

[2] = pKa by potentiometric titration (Sirius T3); assay type: physicochemical; conditions: potentiometric titrations, means ± SD of three titrations
HEG1-KRIT1 PPI [3] = biological target: T1, HEG1-KRIT1 PPI (Homo sapiens, UniProt O00522); assay: HEG1-KRIT1 PPI fluorescence polarization (FP) time-resolved assay; assay type: biochemical; conditions: means ± SD, n = 3; for IC50: fluorescence polarization assay after 4 h of incubation; for HEG1-KRIT1 PPI Assay kon / koff: global fit across six or more inhibitor concentrations; for Ki: global fit, unit in Figure 2E, read-out: HEG1-KRIT1 PPI Assay Ki (koff/kon)
T1 construct: a recombinant FERM domain (residues 417–736) of KRIT1; made in house; host or cells: E. coli
T1 sequence (O00522 417-736): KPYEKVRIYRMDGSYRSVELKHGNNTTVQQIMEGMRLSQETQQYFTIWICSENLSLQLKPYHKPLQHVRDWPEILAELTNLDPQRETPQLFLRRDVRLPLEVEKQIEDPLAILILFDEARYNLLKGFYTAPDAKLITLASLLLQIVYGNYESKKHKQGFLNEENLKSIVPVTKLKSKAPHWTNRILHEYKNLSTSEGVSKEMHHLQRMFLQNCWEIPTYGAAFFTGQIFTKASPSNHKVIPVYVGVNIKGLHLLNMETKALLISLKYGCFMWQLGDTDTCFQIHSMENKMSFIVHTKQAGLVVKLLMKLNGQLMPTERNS
Method: To evaluate the binding kinetics of HNA inhibitors, a fluorescence polarization (FP) time-resolved assay that uses a recombinant FERM domain (residues 417–736) of KRIT1 and a fluorescence-tagged HEG1 cytoplasmic tail (Cy5-HEG1 7-mer peptide) was developed (Supporting Information). Using HNA as a test compound, the FP data, expressed as millipolarization (mP) units, were obtained every 10 min over the course of 4–7 h. […] Thus, for practical purposes, a 4-h incubation time was established as the standard assay time for non-kinetic IC50 evaluations.
Fluorescence Polarization Assay and Optimization
The KRIT1 FERM domain (residues 417-736) was cloned into plasmid and recombinantly expressed in E. coli as previously described,1 while the Cy5-HEG1 7- mer peptide bearing the Cy5 dye as fluorescent probe was prepared by and purchased from GenScript (New Jersey, US). HEPES- buffered saline (HBS) buffer was supplemented (0.01%) with detergent Triton X -100 to minimize protein adsorption to the microplate. The assay was setup in a 96-well plate plated with 80 nM KRIT1, 4 nM Cy5- HEG1 probe, and either non-tagged HEG1 peptide or HNA as inhibitor (in 5% DMSO). To account for background fluorescence that could interfere with the assay, background wells with only test compound and Cy5 -HEG1 probe (no KRIT1) were also plated. The FP data, expressed as millipolarization (mP) units, were obtained […]
course of 4-7 hours (for kinetic characterization) using a Tecan Spark® Multimode Microplate Reader. The background mP (no KRIT1) was subtracted from mP to account for background fluorescence. All assays were done in triplicates.
Several FP assay conditions were optimized. First, the HEG1 probe engagement of KRIT1 was examined and its interaction was determined to be rapid equilibrium, thus any observed time dependance in response when an inhibitor displaces the probe is the result of inhibitor exchange kinetics and not that of the probe. Next, the affinity of KRIT1 for the probe (Kd) was examined by following the change in polarization signal as a function of a matrix of five probe concentrations and four KRIT1 concentrations (Figure S1B ). A global fit of equation 3 to polarization responses of the inhibitor vs KRIT1 concentration […]
even after 7 hours of incubation. For practical purposes, we have chosen 4 hours as our standard incubation time since it appeared that most of the inhibition has been reached at this time point. The kinetic characterization of HNA as a HEG1- KRIT1 inhibitor will be discussed in greater detail in the kinetic section […]
values to those obtained from the flow cytometry assay. Finally, to assess the robustness of the FP assay, […]
a robust assay) representing an excellent assay with clear differences between positive and negative controls.2 Evaluation of HEG1-KRIT1 inhibitors prior to the optimization of the FP assay were done using flow cytometry, while subsequent compounds were evaluated using the FP assay. All subsequent assay plates included HNA as comparison and control.
Figure S1. Optimization of fluorescence polarization (FP) assay.
HEG1-KRIT1 inhibition. (B) Optimization of KRIT1 protein and Cy5 -HEG1 probe concentrations. Dose-response curve of HNA obtained via fluorescence polarization (C) and flow cytometry (D) assays show […]
All assays were tested in technical duplicates or triplicates in at least 2 different

KLF2 [4] = assay: KLF2 gene expression in HUVECs (RT-qPCR); assay type: cell-based, Human; conditions: HUVEC, 4-h incubation, relative to inactive control (2-hydroxy-1-naphthoic acid), 10-50 µM
Method: (§1) Finally, to confirm target engagement in cell-based conditions, selected HNA derivatives (i.e., 2, 3, and 5) were tested in a functional assay that specifically looks at the downstream effects of inhibiting the interaction between HEG1 and KRIT1, using qPCR. […] Here, the ability of compound 2 and HNA derivatives 3 and 5 to upregulate the same transcription factors in HUVEC after 4 h was measured.
(§2) PCR experiments in endothelial cells
(§3) Cell Culture. Human umbilical vein endothelial cells (HUVECs, Lonza) from passages 5 to 7 were grown on fibronectin‐coated 6-well plates (Corning) in complete EGM‐2 media (Lonza). HNA compounds 2, 3 and 5 were used from stocks of 10 mM in DMSO, which were placed on a rotating block at room temperature for 30 min before being diluted for use in cell culture. Compounds were used at the concentrations indicated (10-50µM) in HUVEC medium and added to cell culture wells for 4 hours. Control cells were treated with the same concentration of either DMSO (vehicle) or the non-active compound V for the same duration. Cells were maintained in a humidified incubator at 37°C and 5% CO2.
(§4) RT-qPCR. HUVECs (Lonza) using TRIzol reagent (Thermo Fisher Scientific) and the Quick-RNA MiniPrep Kit (Zymo Research) according to the manufacturer’s instructions. cDNA was transcribed from a total of 1 µg RNA per sample using qScript™ cDNA SuperMix (QuantaBio) according to the manufacturer’s protocol. KAPA SYBR FAST qPCR master mix (Roche) was used on a CFX Connect Real-Time PCR Detection System (BioRad) to determine the relative levels of human gene trascripts. The following primer sets were used: KLF2 (forward) AGACCACGATCCTCCTTGA and (reverse) […]
(§5) […]; KLF4, (forward) […] and (reverse)
(§6) ; and GAPDH (forward) […] and
(§7) (reverse) […] used as internal control. The 2−ΔΔCT method was used to analyze relative changes between vehicle control and test compounds for each data set.

KLF4 [5] = assay: KLF4 gene expression in HUVECs (RT-qPCR); assay type: cell-based, Human; conditions: HUVEC, 4-h incubation, relative to inactive control (2-hydroxy-1-naphthoic acid), 10-50 µM
Method: as §1, §2, §3, §4, §5, §6, §7

KLF4 [6] = test system: KLF4; parameters: method as in PMID 33977234; conditions: HUVECs, 24 h of incubation; cited from earlier work
KLF2 [7] = test system: KLF2; parameters: method as in PMID 33977234; conditions: HUVECs, 24 h of incubation; cited from earlier work
HEG1-KRIT1 PPI [8] = conditions: prior SAR studies; read-out: HEG1-KRIT1 PPI inhibition IC50; cited from earlier work

SMILES	CC50 at 48 h [1] [nM]	pKa [2]	IC50 (HEG1-KRIT1 PPI [3]) [nM]	HEG1-KRIT1 PPI Assay kon (HEG1-KRIT1 PPI [3])	koff (HEG1-KRIT1 PPI [3]) [s⁻¹]	Ki (HEG1-KRIT1 PPI [3]) [nM]	KLF2 mRNA expression (KLF2 [4])	KLF4 mRNA expression (KLF4 [5])	KLF4 expression (KLF4 [6])	KLF2 expression (KLF2 [7])	IC50 (HEG1-KRIT1 PPI [8]) [nM]
C=CCc1ccc2c(C=O)c(O)ccc2c1 [Compound 7]	33900 ± 5400	7.17 ± 0.09	1220 ± 430	50.8 ± 5 M⁻¹ s⁻¹	3.19e-05	630 ± 160					
O=Cc1c(O)ccc2cc(-c3cccs3)ccc12 [Compound 4]	33900 ± 700		470 ± 110	200 ± 30 M⁻¹ s⁻¹	0.000114	570 ± 140					
O=Cc1c(O)ccc2cc(-c3ccco3)ccc12 [Compound 5]	37100 ± 5200	8.08 ± 0.08	690 ± 110	108 ± 20.8 M⁻¹ s⁻¹	8.81e-05	820 ± 250	significant elevations	significant elevations			
O=Cc1c(O)ccc2cc(-c3ccsc3)ccc12 [Compound 15]	38400 ± 6100	7.75 ± 0.08	1180 ± 390	60.3 ± 7.5 M⁻¹ s⁻¹	5e-05	830 ± 200					
CN(C)c1ccc2c(C=O)c(O)ccc2c1 [Compound 11]	> 100000		12100 ± 4610	9.64 M⁻¹ s⁻¹ and 9.64 ± 2.08 M⁻¹ s⁻¹	0.00011	11400 ± 4080					
COc1ccc2c(C=O)c(O)ccc2c1 [Compound 2, 2-hydroxy-6-methoxy-1-naphthaldehyde]	> 100000	7.42 ± 0.03	3960 ± 840	14 M⁻¹ s⁻¹ and 14 ± 0.83 M⁻¹ s⁻¹	1.54e-05	1100 ± 320	increased KLF2 and KLF4 expression without reaching statistical significance	increased KLF2 and KLF4 expression without reaching statistical significance	upregulation	upregulation	
O=Cc1ccccc1O [salicylaldehyde, reference compound]											> 500000
O=Cc1c(O)ccc2ccc(-c3ccco3)cc12 [Compound 6]	41200 ± 6700	7.5 ± 0.02	940 ± 120	52.8 ± 9.17 M⁻¹ s⁻¹	4.97e-05	940 ± 320					
CC#Cc1ccc2c(C=O)c(O)ccc2c1 [Compound 12]	~100000	7.02 ± 0.08	1420 ± 320	43.1 ± 5.83 M⁻¹ s⁻¹	4.36e-05	1010 ± 290					
O=Cc1c(O)ccc2ccc(-c3cccs3)cc12 [Compound 16]	31400 ± 4200		240 ± 90	232 ± 40.8 M⁻¹ s⁻¹	7.28e-05	310 ± 90					
C#Cc1ccc2c(C=O)c(O)ccc2c1 [Compound 3]	> 100000	6.81 ± 0.05	650 ± 120	179 ± 26.1 M⁻¹ s⁻¹	0.000118	660 ± 170	significant elevations	significant elevations			
O=Cc1c(O)ccc2cc(-c3c[nH]nn3)ccc12 [Compound 14]	> 100000	7.38 ± 0.12	12000 ± 1090	4.58 M⁻¹ s⁻¹ and 4.58 ± 0.444 M⁻¹ s⁻¹	1.99e-05	4350 ± 1770					
O=Cc1c(O)ccc2cc(Cl)ccc12 [Compound 8]	~100000	7.3 ± 0.06	1830 ± 820	35.6 ± 5 M⁻¹ s⁻¹	2.97e-05	840 ± 330					
O=Cc1c(O)ccc2cc(OC(F)F)ccc12 [Compound 10]	> 100000	6.95 ± 0.12	2210 ± 680	29.7 ± 2.5 M⁻¹ s⁻¹	3.08e-05	1030 ± 250					
O=Cc1c(O)ccc2cc(-c3ccccc3)ccc12 [Compound 13]	43500 ± 9400	6.76 ± 0.1	790 ± 240	112 ± 23.9 M⁻¹ s⁻¹	7.28e-05	650 ± 240					
C=CCOc1ccc2c(C=O)c(O)ccc2c1 [Compound 9]	59200 ± 12900	7.34 ± 0.12	2750 ± 190	24.6 ± 1.81 M⁻¹ s⁻¹	2.29e-05	930 ± 240					
